# Assay results reported in patent publication US11135214B2, “Methods for enhancing the bio availability and exposure of a voltage-gated potassium channel opener” (priority 2018, dated 2021).
# Where two headings read alike, the source gives them in different places.
# Key:
# cortical excitability = experiment: TMS crossover study, TMS-evoked EEG potentials (TEPs); format: in vivo, human; details: for N45 vs pre-dose: 4 h (p=0.03)
# Procedure: All 20 subjects underwent TMS-EMG and TMS-EEG sessions prior to dosing on Days 1 and 7 and at 2 and 4 h after dosing. […] For the 6 h timepoint, RMT was performed for 16 subjects, and AMT, EEG resting state, and TMS-EEG was performed for 8 subjects.
# Compound A-induced modulation of PD markers was evaluated as an effect of time (comparisons of 2, 4, and 6 h post-dose vs. pre-dose) and of concentration (using the post-dose measure taken during highest drug exposure vs. baseline).
# TMS-evoked EEG potentials (TEPs) were calculated by averaging artefact-free EEG trials in the different experimental conditions (Table 17).
# The following TEP components (P=positive, N=negative) in accordance with the literature were studied, value in parenthesis is the time of interest (TOI): P25 (15-35 ms), N45 (35-70 ms), P70 (70-80 ms), N100 (80-145 ms), and P180 (145-230 ms). TOIs were chosen on the basis of the grand-averaged TEPs and kept identical during the analysis of pre-dose and post-dose measurements and across conditions. To analyze drug-induced modulation of TEPs, we selected a region of interest (ROI) that was composed of 27 channels over and around the stimulation site (left M1) and the corresponding contralateral site (‘FC1’, ‘FC3’, ‘FC5’, ‘C1’, ‘C3’, ‘C5’, ‘CP1’, ‘CP3’, ‘CP5’, ‘P1’, ‘P3’, ‘P5’, ‘Cz’, ‘CPz’, ‘Pz’, ‘FC2’, ‘FC4’, ‘FC6’, ‘C2’, ‘C4’, ‘C6’, ‘CP2’, ‘CP4’, ‘CP6’, ‘P2’, ‘P4’, ‘P6’).
# To analyze significance of TEP amplitude modulations induced by Compound A, multiple dependent sample t-test comparisons (post-dose vs. pre-dose) were applied for each TOI in all the electrodes within the indicated ROI. To correct for multiple comparisons (i.e., electrodes, timepoints), we conducted a non-parametric cluster-based permutation analysis as implemented in FieldTrip.
# [1] = First-in-human SAD and MAD study, pharmacokinetics; format: in vivo; details: for Cmax / Tmax / AUC(0-t): human, plasma, oral
# Procedure: A first-in-human study was conducted to evaluate the safety, tolerability and pharmacokinetics (PK) of single and multiple ascending doses (SAD and MAD) of oral Compound A.
# In the SAD Phase, 32 healthy volunteers were randomized (3:1) to Compound A (5, 15, 20, 25 or 30 mg) or placebo. The study featured an adaptive design. A crossover food effect cohort (N=10) was also completed with single doses of 20 mg. A sub-set of 8 male subjects were also assessed with Transcranial Magnetic Stimulation (TMS) for effects on cortical excitability (see Examples 4 and 5).
# Repeat doses of Compound A (15 mg QD) were evaluated in a fasted and fed state over 7 and 10 days, respectively. Repeat doses of Compound A (25 mg QD) were also evaluated in a fed state over 10 days.
# Compound A was formulated as an immediate release capsule. Serial plasma PK samples were collected for all cohorts. Safety evaluations throughout the study included adverse event (AE) monitoring, clinical laboratory tests, vital signs, ECGs, physical examinations and Columbia-Suicide Severity Rating Scale.
# [2] = 5 mg, SAD, 5 mg fasted, N=3, Mean ± SD
# [3] = 15 mg, MAD, 15 mg Fed, Day 1, N=6, mean
# [4] = 15 mg, MAD, 15 mg Fed, Day 10, N=6, mean
# [5] = 15 mg, MAD, 15 mg QD Fasted, Day 1, N=6, mean
# [6] = 15 mg, MAD, 15 mg QD Fasted, Day 7, N=6, mean
# [7] = 15 mg, SAD, 15 mg fasted, N=3, Mean ± SD
# [8] = 20 mg, SAD, 20 mg fasted, N=6, Mean ± SD
smiles,measurement,setting,value
"Cc1cc(N2CCc3cc(F)ccc3C2)cc(C)c1NC(=O)CC(C)(C)C [Compound A, N-[4-(6-fluoro-3,4-dihydro-1H-isoquinolin-2-yl)-2,6-dimethylphenyl]-3,3-dimethylbutanamide]","Modulation of TEPs, N45",cortical excitability; 2 h after dosing vs pre-dose,Not significant
same,"Modulation of TEPs, P180",cortical excitability; 2 h after dosing vs pre-dose,Not significant
same,N15-P25 complex vs pre-dose,"cortical excitability; all available subjects, 2 h (p=0.006) and 4 h (p=0.01)",decreased
same,P180 vs pre-dose,"cortical excitability; all available subjects, 4 h (p=0.02)",significantly suppressed
same,N45 vs pre-dose,cortical excitability; all available subjects,significantly suppressed
same,TEP amplitude P180,"cortical excitability; concentration analysis N=16, highest plasma concentration, printed 2.2 vs 3.0 μV, p<0.01",2.2 μV
same,peak-to-peak amplitude of early complex N15-P25 (15 to 35 ms),"cortical excitability; concentration analysis N=16, highest plasma concentration, printed 4.5 vs 6.0 μV, p<0.05",4.5 μV
same,TEP amplitude N45,"cortical excitability; concentration analysis N=16, highest plasma concentration, printed −2.3 vs −3.0 μV, p<0.01",−2.3 μV
same,N15-P25 complex vs pre-dose,"cortical excitability; subjects with drug exposure, 2 h (p=0.008) and 4 h (p=0.02)",decreased
same,P180 vs pre-dose,"cortical excitability; subjects with drug exposure, 4 h (p=0.004)",significantly suppressed
same,N45 vs pre-dose,cortical excitability; subjects with drug exposure,significantly suppressed
same,N100 vs pre-dose,"cortical excitability; subjects with drug exposure, 4 h (p=0.04)",significantly suppressed
same,"absorption enhanced by food, AUCinf","[1]; crossover food effect cohort, 20 mg",~1.8 fold
same,dose proportionality of exposure,[1]; fasted state,less than dose-proportional exposure
same,Cmax,[1]; [2],7.13 ± 6.12 ng/mL
same,Tmax,[1]; [2],3.17 ± 2.47 h
same,AUC(0-t),"[1]; 5 mg, SAD, 5 mg fasted, N=3, Mean ± SD, read-out: AUC0-24",74.6 ± 50.5 ng·h/mL
same,AUC(0-t),"[1]; 5 mg, SAD, 5 mg fasted, N=3, tLast 32 h, Mean ± SD, read-out: AUC0-t",91.3 ± 54.2 ng·h/mL
same,Cmax,[1]; [3],35.9 ng/mL
same,Tmax,[1]; [3],4.37 h
same,AUC(0-t),"[1]; 15 mg, MAD, 15 mg Fed, Day 1, N=6, mean, read-out: AUC0-24",353 ng·h/mL
same,Cmax,[1]; [4],60.8 ng/mL
same,Tmax,[1]; [4],3.69 h
same,AUC(0-t),"[1]; 15 mg, MAD, 15 mg Fed, Day 10, N=6, mean, read-out: AUC0-24",1020 ng·h/mL
same,AUC(0-t),"[1]; 15 mg, MAD, 15 mg Fed, Day 10, N=6, mean, read-out: AUC0-t",4950 ng·h/mL
same,Cmax,[1]; [5],10.5 ng/mL
same,Tmax,[1]; [5],2.68 h
same,AUC(0-t),"[1]; 15 mg, MAD, 15 mg QD Fasted, Day 1, N=6, mean, read-out: AUC0-24",125 ng·h/mL
same,Cmax,[1]; [6],45.1 ng/mL
same,Tmax,[1]; [6],2.69 h
same,AUC(0-t),"[1]; 15 mg, MAD, 15 mg QD Fasted, Day 7, N=6, mean, read-out: AUC0-24",757 ng·h/mL
same,AUC(0-t),"[1]; 15 mg, MAD, 15 mg QD Fasted, Day 7, N=6, mean, read-out: AUC0-t",4260 ng·h/mL
same,Cmax,[1]; [7],27.3 ± 11.1 ng/mL
same,Tmax,[1]; [7],4.5 ± 2.6 h
same,AUC(0-t),"[1]; 15 mg, SAD, 15 mg fasted, N=3, Mean ± SD, read-out: AUC0-24",328 ± 141 ng·h/mL
same,AUC(0-t),"[1]; 15 mg, SAD, 15 mg fasted, N=3, tLast 32 h, Mean ± SD, read-out: AUC0-t",397 ± 166 ng·h/mL
same,Cmax,[1]; [8],31.5 ± 21.1 ng/mL
same,Tmax,[1]; [8],3.69 ± 2.05 h
same,AUC(0-t),"[1]; 20 mg, SAD, 20 mg fasted, N=6, Mean ± SD, read-out: AUC0-24",376 ± 220 ng·h/mL
